Source: ChEMBL document CHEMBL1201861, “Genomics of Drug Sensitity in Cancer screening data, Wellcome Trust Sanger Institute”

Assays:
Assay in all cases: cells
Settings in all cases: Homo sapiens
NCI-H23 = type: functional, cell-based
TE-12 = type: functional, cell-based
NCI-H510A = type: functional, cell-based
A3-KAW = type: functional, cell-based
RCC10RGB = type: functional, cell-based
NH-12 = type: functional, cell-based
Calu-6 = type: functional, cell-based
EW-24 = type: functional, cell-based
EOL1 = type: functional, cell-based
CAS-1 = type: functional, cell-based
TGBC1TKB = type: functional, cell-based
OCUB-M = type: functional, cell-based
COLO-829 = type: functional, cell-based
RS4-11 = type: functional, cell-based
SK-N-DZ = type: functional, cell-based
HT-144 = type: functional, cell-based
SK-N-FI = type: functional, cell-based
LC-2-ad = type: functional, cell-based
NCI-H82 = type: functional, cell-based
SCH = type: functional, cell-based
LU-139 = type: functional, cell-based
NCI-H1092 = type: functional, cell-based
CTV-1 = type: functional, cell-based
NCI-H1770 = type: functional, cell-based
A498 = type: functional, cell-based
KU812 cell line = type: functional, cell-based
SHP77 = type: functional, cell-based, SHP-77
NCI-H2126 = type: functional, cell-based
SW872 = type: functional, cell-based
MC116 = type: functional, cell-based
ETK-1 = type: functional, cell-based
GAK = type: functional, cell-based
NCI-H1395 = type: functional, cell-based
BB65-RCC = type: functional, cell-based
OCI-AML2 = type: functional, cell-based
NCI-H226 = type: functional, cell-based
LAMA-84 = type: functional, cell-based
RH-1 = type: functional, cell-based
SK-UT-1 = type: functional, cell-based
DEL = type: functional, cell-based
OVCAR-4 = type: functional, cell-based
NB13 = type: functional, cell-based
KALS-1 = type: functional, cell-based
HD-MY-Z = type: functional, cell-based
EC-GI-10 = type: functional, cell-based
SNB-75 = type: functional, cell-based
L-428 = type: functional, cell-based
DMS-79 = type: functional, cell-based
MPP-89 = type: functional, cell-based
SW684 = type: functional, cell-based
MFM-223 = type: functional, cell-based
ATN-1 = type: functional, cell-based
HCC1187 = type: functional, cell-based
DMS-114 = type: functional, cell-based
NCI-H1304 = type: functional, cell-based
DSH1 = type: functional, cell-based
LB2518-MEL = type: functional, cell-based
COLO-824 = type: functional, cell-based
BV-173 = type: functional, cell-based
no-10 = type: functional, cell-based
JVM-2 = type: functional, cell-based
OS-RC-2 = type: functional, cell-based
MZ2-MEL = type: functional, cell-based
NCI-H720 = type: functional, cell-based
HAL-01 = type: functional, cell-based
IST-SL1 = type: functional, cell-based

## C[C@]12O[C@H](C[C@]1(O)CO)n1c3ccccc3c3c4c(c5c6ccccc6n2c5c31)CNC4=O [LESTAURTINIB]
NCI-H23
  IC50: 1690 nM
TE-12
  IC50: > 2000 nM
NCI-H510A
  IC50: 513 nM
A3-KAW
  IC50: 23.9 nM
RCC10RGB
  IC50: > 2000 nM
NH-12
  IC50: 199 nM
Calu-6
  IC50: > 2000 nM
EW-24
  IC50: 266 nM
EOL1
  IC50: 8.69 nM
CAS-1
  IC50: > 2000 nM
TGBC1TKB
  IC50: > 2000 nM
OCUB-M
  IC50: > 2000 nM
COLO-829
  IC50: 1160 nM
RS4-11
  IC50: 61.9 nM
SK-N-DZ
  IC50: 258 nM
HT-144
  IC50: 978 nM
SK-N-FI
  IC50: 1100 nM
LC-2-ad
  IC50: 257 nM
NCI-H82
  IC50: > 2000 nM
SCH
  IC50: > 2000 nM
LU-139
  IC50: > 2000 nM
NCI-H1092
  IC50: > 2000 nM
CTV-1
  IC50: 189 nM
NCI-H1770
  IC50: > 2000 nM
A498
  IC50: 221 nM
KU812 cell line
  IC50: 1010 nM
SHP77
  IC50: > 2000 nM
NCI-H2126
  IC50: > 2000 nM
SW872
  IC50: > 2000 nM
MC116
  IC50: 190 nM
ETK-1
  IC50: 856 nM
GAK
  IC50: […]
NCI-H1395
  IC50: 281 nM
BB65-RCC
  IC50: 23 nM
OCI-AML2
  IC50: 1070 nM
NCI-H226
  IC50: > 2000 nM
LAMA-84
  IC50: 48.5 nM
RH-1
  IC50: 149 nM
SK-UT-1
  IC50: 354 nM
DEL
  IC50: 47.3 nM
OVCAR-4
  IC50: > 2000 nM
NB13
  IC50: 469 nM
KALS-1
  IC50: 689 nM
HD-MY-Z
  IC50: 13.9 nM
EC-GI-10
  IC50: 535 nM
SNB-75
  IC50: 1490 nM
L-428
  IC50: > 2000 nM
DMS-79
  IC50: > 2000 nM
MPP-89
  IC50: 1040 nM
SW684
  IC50: 1920 nM
MFM-223
  IC50: 333 nM
ATN-1
  IC50: 104 nM
HCC1187
  IC50: > 2000 nM
DMS-114
  IC50: 1520 nM
NCI-H1304
  IC50: > 2000 nM
DSH1
  IC50: 992 nM
LB2518-MEL
  IC50: 405 nM
COLO-824
  IC50: > 2000 nM
BV-173
  IC50: 369 nM
no-10
  IC50: > 2000 nM
JVM-2
  IC50: > 2000 nM
OS-RC-2
  IC50: 566 nM
MZ2-MEL
  IC50: 236 nM
NCI-H720
  IC50: 48.5 nM
HAL-01
  IC50: 306 nM
IST-SL1
  IC50: 112 nM
